Reference: PubChem BioAssay AID328 (DTP/NCI, 2004)
“And” between values parts separate entries of the source, which are not always exact repeats. Identical values can stand only once. Toxic doses and inconclusive results are not listed.

System: BDF1 mice, P388 leukemia ip, median survival T/C
Assay: NCI In Vivo Anticancer Drug Screen. Data for tumor model P388 Leukemia (intraperitoneal) in B6D2F1 (BDF1) mice
Settings: endpoint: median survival time, higher = longer survival
How it was run: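 In tumour-bearing mice, survival after compound treatment is set against the vehicle group and given as a quotient.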

[1] = dose: 25.0 mg/kg/injection, schedule: Q01DX009 (ip), vehicle: saline with Tween-80
[2] = dose: 50.0 mg/kg/injection, schedule: Q01DX009 (ip), vehicle: saline with Tween-80
[3] = dose: 100.0 mg/kg/injection, schedule: Q01DX009 (ip), vehicle: saline with Tween-80
[4] = dose: 12.5 mg/kg/injection, schedule: Q04DX003 (ip), vehicle: saline
[5] = dose: 25.0 mg/kg/injection, schedule: Q04DX003 (ip), vehicle: saline
[6] = dose: 50.0 mg/kg/injection, schedule: Q04DX003 (ip), vehicle: saline
[7] = dose: 100.0 mg/kg/injection, schedule: Q04DX003 (ip), vehicle: saline
[8] = dose: 200.0 mg/kg/injection, schedule: Q04DX003 (ip), vehicle: saline
[9] = dose: 400.0 mg/kg/injection, schedule: Q04DX003 (ip), vehicle: saline
[10] = dose: 100.0 mg/kg/injection, schedule: Q04DX003 (ip), vehicle: saline with Tween-80
[11] = dose: 200.0 mg/kg/injection, schedule: Q04DX003 (ip), vehicle: saline with Tween-80
[12] = dose: 400.0 mg/kg/injection, schedule: Q04DX003 (ip), vehicle: saline with Tween-80
[13] = dose: 200.0 mg/kg/injection, schedule: Q01DX009 (ip), vehicle: saline with Tween-80
[14] = dose: 100.0 mg/kg/injection, schedule: Q04DX003 (ip), vehicle: Klucel (hydroxypropylcellulose) (HPC)
[15] = dose: 400.0 mg/kg/injection, schedule: Q04DX003 (ip), vehicle: Klucel (hydroxypropylcellulose) (HPC)

Structure (SMILES): NC(=S)N/N=C/c1nccc2ccccc12
- T/C (dose: 18.8 mg/kg/injection, schedule: Q01DX009 (ip), vehicle: saline with Tween-80): 158 % of control
- T/C (dose: 37.5 mg/kg/injection, schedule: Q01DX009 (ip), vehicle: saline with Tween-80): 185 % of control
- T/C (dose: 75.0 mg/kg/injection, schedule: Q01DX009 (ip), vehicle: saline with Tween-80): 235 % of control
- T/C (dose: 300.0 mg/kg/injection, schedule: Q01DX009 (ip), vehicle: saline with Tween-80): 91 % of control

Structure (SMILES): CC1(C)OC2(C)CCC1C(O)C2N1CCOCC1 (stereo not given)
- T/C (dose: 50.0 mg/kg/injection, schedule: Q01DX005 (ip), vehicle: saline with Tween-80): 106 % of control
- T/C (dose: 100.0 mg/kg/injection, schedule: Q01DX005 (ip), vehicle: saline with Tween-80): 106 % of control
- T/C (dose: 200.0 mg/kg/injection, schedule: Q01DX005 (ip), vehicle: saline with Tween-80): 101 % of control

Structure (SMILES): C=C(C)CNc1ccccc1
- T/C [1]: 119 % of control
- T/C [2]: 123 % of control
- T/C [3]: 103 % of control and 123 % of control

Structure (SMILES): C[S+](C)C
- T/C (dose: 12.0 mg/kg/injection, schedule: Q01DX001 (ip), vehicle: saline): 100 % of control
- T/C [4]: 100 % of control
- T/C (dose: 25.0 mg/kg/injection, schedule: Q01DX001 (ip), vehicle: saline): 100 % of control
- T/C [5]: 100 % of control
- T/C (dose: 50.0 mg/kg/injection, schedule: Q01DX001 (ip), vehicle: saline): 100 % of control
- T/C [6]: 100 % of control
- T/C [7]: 111 % of control
- T/C [8]: 100 % of control
- T/C [9]: 96 % of control

Structure (SMILES): C=CCOB(OCC=C)OCC=C
- T/C [4]: 108 % of control
- T/C [5]: 100 % of control
- T/C [6]: 91 % of control

Structure (SMILES): C#CC(C)(C)OCC(CCl)OC(N)=O (stereo not given)
- T/C (dose: 50.0 mg/kg/injection, schedule: Q04DX003 (ip), vehicle: saline with Tween-80): 105 % of control
- T/C [10]: 110 % of control
- T/C [11]: 100 % of control
- T/C [12]: 115 % of control

Structure (SMILES): Cc1ccc(NCCNCC(C)(C)O)c2c(=O)c3ccccc3sc12
- T/C [4]: 100 % of control
- T/C [5]: 120 % of control
- T/C [6]: 120 % of control
- T/C (dose: 75.0 mg/kg/injection, schedule: Q04DX003 (ip), vehicle: saline): 100 % of control and 115 % of control and 118 % of control
- T/C (dose: 115.0 mg/kg/injection, schedule: Q04DX003 (ip), vehicle: saline): 115 % of control and 120 % of control
- T/C (dose: 170.0 mg/kg/injection, schedule: Q04DX003 (ip), vehicle: saline): 115 % of control and 122 % of control

Structure (SMILES): c1cc2c3c(c1)ncn3CCC2
- T/C (dose: 25.0 mg/kg/injection, schedule: Q04DX003 (ip), vehicle: other): 100 % of control
- T/C (dose: 50.0 mg/kg/injection, schedule: Q04DX003 (ip), vehicle: other): 100 % of control
- T/C (dose: 100.0 mg/kg/injection, schedule: Q04DX003 (ip), vehicle: other): 95 % of control

Structure (SMILES): CCOC(CN1CCN(CC(C)C(=O)c2ccccc2)CC1)c1ccccc1 (stereo not given)
- T/C [2]: 109 % of control
- T/C [3]: 118 % of control

Structure (SMILES): COc1ccc2c(c1)C(=O)CC=C(C(=O)O)N2
- T/C [3]: 112 % of control
- T/C [10]: 100 % of control
- T/C [13]: 112 % of control
- T/C [11]: 115 % of control
- T/C (dose: 400.0 mg/kg/injection, schedule: Q01DX009 (ip), vehicle: saline with Tween-80): 116 % of control
- T/C [12]: 115 % of control

Structure (SMILES): CCCCc1c(C(=O)OCC)oc(C(=O)OCC)c(CCCC)c1=O
- T/C (dose: 12.5 mg/kg/injection, schedule: Q04DX003 (ip), vehicle: Klucel (hydroxypropylcellulose) (HPC)): 99 % of control
- T/C (dose: 25.0 mg/kg/injection, schedule: Q04DX003 (ip), vehicle: Klucel (hydroxypropylcellulose) (HPC)): 91 % of control
- T/C (dose: 50.0 mg/kg/injection, schedule: Q04DX003 (ip), vehicle: Klucel (hydroxypropylcellulose) (HPC)): 115 % of control
- T/C [14]: 91 % of control
- T/C [15]: 102 % of control

Structure (SMILES): FC(F)(F)c1nc2nc(Br)c(Br)nc2[nH]1
- T/C [3]: 100 % of control
- T/C [10]: 87 % of control
- T/C [13]: 90 % of control
- T/C [12]: 91 % of control

Structure (SMILES): O/N=c1/ccn(O)c2ccccc12
- T/C (dose: 0.14 mg/kg/injection, schedule: Q01DX009 (ip), vehicle: saline): 168 % of control
- T/C (dose: 0.19 mg/kg/injection, schedule: Q04DX003 (ip), vehicle: saline): 116 % of control
- T/C (dose: 0.29 mg/kg/injection, schedule: Q04DX003 (ip), vehicle: saline): 120 % of control
- T/C (dose: 0.34 mg/kg/injection, schedule: Q01DX009 (ip), vehicle: saline): 155 % of control and 183 % of control and 190 % of control
- T/C (dose: 0.44 mg/kg/injection, schedule: Q04DX003 (ip), vehicle: saline): 180 % of control
- T/C (dose: 0.51 mg/kg/injection, schedule: Q01DX009 (ip), vehicle: saline): 162 % of control and 170 % of control and 195 % of control
- T/C (dose: 0.66 mg/kg/injection, schedule: Q04DX003 (ip), vehicle: saline): 210 % of control
- T/C (dose: 1.0 mg/kg/injection, schedule: Q04DX003 (ip), vehicle: saline): 172 % of control
- T/C (dose: 1.5 mg/kg/injection, schedule: Q04DX003 (ip), vehicle: saline): 181 % of control
- T/C (dose: 4.65 mg/kg/injection, schedule: Q04DX003 (ip), vehicle: saline): 173 % of control
- T/C (dose: 11.0 micrograms/kg/injection, schedule: Q01DX009 (ip), vehicle: saline): 104 % of control
- T/C (dose: 22.0 micrograms/kg/injection, schedule: Q01DX009 (ip), vehicle: saline): 108 % of control
- T/C (dose: 45.0 micrograms/kg/injection, schedule: Q01DX009 (ip), vehicle: saline): 104 % of control

Structure (SMILES): Nc1ccccc1N
- T/C [1]: 92 % of control and 100 % of control
- T/C [2]: 100 % of control
- T/C [13]: 97 % of control

Structure (SMILES): CCCC1([N+](C)(C)C)CSC1CC (stereo not given)
- T/C (dose: 12.5 mg/kg/injection, schedule: Q04DX002 (ip), vehicle: saline): 105 % of control
- T/C (dose: 25.0 mg/kg/injection, schedule: Q04DX002 (ip), vehicle: saline): 103 % of control
- T/C (dose: 50.0 mg/kg/injection, schedule: Q04DX002 (ip), vehicle: saline): 96 % of control

Structure (SMILES): COCCCNS(=O)(=O)c1ncnc2nc[nH]c12
- T/C (dose: 132.0 mg/kg/injection, schedule: Q04DX003 (ip), vehicle: saline with Tween-80): 100 % of control
- T/C [11]: 100 % of control
- T/C (dose: 300.0 mg/kg/injection, schedule: Q04DX003 (ip), vehicle: saline with Tween-80): 100 % of control

Structure (SMILES): COC(=O)C1CCCC23CC(CC12)C(C)(C)C3Br (stereo not given)
- T/C [14]: 95 % of control
- T/C (dose: 200.0 mg/kg/injection, schedule: Q04DX003 (ip), vehicle: Klucel (hydroxypropylcellulose) (HPC)): 100 % of control
- T/C [15]: 90 % of control

Structure (SMILES): O=S(=O)(O)CCC(CO)(CO)CO
- T/C [7]: 100 % of control
- T/C [8]: 95 % of control
- T/C [9]: 95 % of control
